Common to all, as to assay type: cell-based
One test relates to Botrytis cinerea. The test is described as follows: in vitro-Test with Botrytis cinerea (microtiter growth inhibition). Particulars: for Efficacy: applied alone. On the procedure: (§1) The degree of efficacy expressed in % is denoted: 0% means an efficacy, which corresponds to that of the control, while an efficacy of 100% means that no disease is observed.
(§2) If the actual fungicidal activity exceeds the calculated value, then the activity of the combination is super-additive, i.e. a synergistic effect exists. In this case, the efficacy, which was actually observed, must be greater than the value for the expected efficacy (E), that was calculated from the abovementioned formula.
(§3) Example: In Vitro-Test with Fungal Microorganisms
(§4) Wells of 96-well microtiter plates are filled with 10 μl of a preparation of test compound or compound combination in methanol+emulsifier alkylaryl-polyglycol-ether. Thereafter, the solvent is evaporated in a hood. At the next step, 100 μl of liquid potato dextrose medium is given into each well, that has been amended with an appropriate concentration of spores or mycelium suspension of the test fungus.
(§5) With the aid of a photometer, the extinction in all wells is measured at the wavelength of 620 nm.
(§6) The microtiter plates are incubated at 20° C. and 85% relative humidity. The inhibition of growth is determined again photometrically 3-5 days after the application. Efficacy is calculated in relation to the untreated control, 0% efficacy means fungal growth as high as in untreated control while 100% efficacy means no fungal growth is measured.

For the next test, the system named is Parastagonospora nodorum. The test is described as follows: in vitro-Test with Parastagonospora nodorum (microtiter growth inhibition). The method, then:
as §1, §2, §3, §4, §5, §6

The subject of test [1] is Ustilago segetum var. avenae. The test is described as follows: in vitro-Test with Ustilago segetum var. avenae (microtiter growth inhibition). On the procedure: as §1, §2, §3, §4, §5, §6
A further test concerns Cercospora beticola. In words: in vitro-Test with Cercospora beticola (microtiter growth inhibition). Particulars: alone. The method, then:
as §1, §2, §3, §4, §5, §6

In another test the test system is Diaporthe citri. The test is described as follows: in vitro-Test with Diaporthe citri (microtiter growth inhibition). The method, then:
as §2, §3, §4, §5, §6

The subject of a further test is Alternaria alternate. In words: in vitro-Test with Alternaria alternate (microtiter growth inhibition). The following applies: for Efficacy: applied alone; for Efficacy %: alone. On the procedure:
as §1, §2, §3, §4, §5, §6

In another test the test system is Cordana musae. In words: in vitro-Test with Cordana musae (microtiter growth inhibition). The following applies: single substance. On the procedure:
as §1, §2, §3, §4, §5, §6

The mark [2] stands for this setting: Parastagonospora nodorum, compound alone, read-out: Efficacy %.
Where [3] appears, read: Parastagonospora nodorum, compound alone, 20 ppm, read-out: Efficacy %.

Efficacy %, inhibition of growth and Efficacy data for 19 compounds are collected here from patent publication US20230165252A1, “ACTIVE COMPOUND COMBINATIONS” (Bayer Aktiengesellschaft, priority 2020, published 2023).

Several values for one entry are separate records, joined by “and”; a condition that tells them apart may be missing. Equal entries are not always repeated.

In the case of `Cc1ccc(C(F)(F)CNC(=O)c2c(Oc3cccc(C4CC4)c3F)nnc(Cl)c2C)c(C)c1` [(1-655)], the Efficacy % is listed as 0% in the test on Botrytis cinerea (single active at 0.004 ppm), 0% in the test with Botrytis cinerea (single active at 0.020 ppm), 58% in the test with Botrytis cinerea (single active at 0.1 ppm) and 100% with Botrytis cinerea (single active at 0.5 ppm).

For the compound `Cc1ccc(C(F)(F)CNC(=O)c2c(Oc3cccc(C4CC4)c3F)nnc(Cl)c2C)c(Cl)c1` [(1-746)], the Efficacy % in the test on Botrytis cinerea (single active at 0.004 ppm) amounted to 0%; in the test on Botrytis cinerea (single active at 0.020 ppm) it was 0%; in the test on Botrytis cinerea (single active at 0.1 ppm), 38%; in the test on Botrytis cinerea (single active at 0.5 ppm) it was 100%.

For the compound `Cc1ccc(C(F)(F)CNC(=O)c2c(Oc3cccc(C4CC4)c3F)nnc(Cl)c2C)cc1C` [(1-749)], the Efficacy % in the test on Botrytis cinerea (single active at 0.004 ppm) is recorded as 0%; with Botrytis cinerea (single active at 0.020 ppm), 0%; in the test with Botrytis cinerea (single active at 0.1 ppm), 45%; with Botrytis cinerea (single active at 0.5 ppm), 99%.

Consider `CCCN(CC)CC1COC2(CCC(C(C)(C)C)CC2)O1` (centres unmarked) [(1.020) spiroxamine], for which the inhibition of growth at 20 ppm in the test on Botrytis cinerea (Botrytis cinerea, single active at 20 ppm, read-out: Efficacy %) is 15%; in the test with Parastagonospora nodorum (setting [3]) it was 0%. Besides, the inhibition of growth at 0.8 ppm in the test on Parastagonospora nodorum (setting [2]) came to 6%. In the test with Parastagonospora nodorum (setting [2]), the inhibition of growth at 4 ppm was 0%.

For `CC(O)(Cn1cncn1)c1ccc(Oc2ccc(Cl)cc2)cc1C(F)(F)F` (centres unmarked) [(1.055) mefentrifluconazole], the Efficacy % was 0% with Botrytis cinerea (single active at 0.008 ppm); 9% and 0% in the test on Botrytis cinerea (single active at 0.04 ppm); 60% and 96% in the test with Botrytis cinerea (single active at 0.2 ppm); 100% in the test on Botrytis cinerea (single active at 1.0 ppm); 34% in test [1] (compound alone, 0.008 ppm); 87% in test [1] (compound alone, 0.04 ppm). For the same compound, the Efficacy % in test [1] (compound alone, 0.2 ppm) worked out at 98%; in test [1] (compound alone, 1.0 ppm), 100%; in the test with Parastagonospora nodorum (compound alone, 0.008 ppm) it was 81%; in the test on Parastagonospora nodorum (compound alone, 0.04 ppm), 98%; with Parastagonospora nodorum (compound alone, 0.2 ppm) it was 99%.

For the compound `Cn1cc(C(=O)Nc2ccc(F)cc2-c2ccc(Cl)c(Cl)c2)c(C(F)F)n1` [(2.002) bixafen], the Efficacy % is 9% with Botrytis cinerea (single active at 0.008 ppm); 42% in the test with Botrytis cinerea (single active at 0.04 ppm); 55% and 67% with Botrytis cinerea (single active at 0.2 ppm); 67% and 73% with Botrytis cinerea (single active at 1.0 ppm); 3% with Parastagonospora nodorum (compound alone, 0.04 ppm).

Consider `C[C@@H]1CC(C)(C)c2c(F)ccc(NC(=O)c3cn(C)nc3C(F)F)c21` [(2.028) inpyrfluxam], for which the Efficacy % in the test with Botrytis cinerea (single active at 0.008 ppm) is 0%; in the test on Botrytis cinerea (single active at 0.04 ppm), 48% and 55%; with Botrytis cinerea (single active at 0.2 ppm) it was 60% and 66%; with Botrytis cinerea (single active at 1.0 ppm) it was 63% and 91%; with Parastagonospora nodorum (compound alone, 0.008 ppm), 0%; in the test with Parastagonospora nodorum (compound alone, 0.04 ppm), 23%. Besides, the Efficacy % in the test with Parastagonospora nodorum (compound alone, 0.2 ppm) came out at 33%; with Parastagonospora nodorum (compound alone, 1.0 ppm) it was 33%.

Take `COc1ccnc(C(=O)N[C@H]2COC(=O)[C@H](Cc3ccccc3)[C@@H](OC(=O)C(C)C)[C@H](C)OC2=O)c1OCOC(=O)C(C)C` [(3.025) fenpicoxamid]: the Efficacy % in the test on Botrytis cinerea (single active at 0.04 ppm) turned out to be 0%; in the test with Botrytis cinerea (single active at 0.2 ppm) it was 13%; with Botrytis cinerea (single active at 1.0 ppm), 0%; in the test with Botrytis cinerea (single active at 5.0 ppm), 34%; in test [1] (compound alone, 0.04 ppm) it was 3%; in test [1] (compound alone, 0.2 ppm) it was 0%. Moreover, the Efficacy % in test [1] (compound alone, 1.0 ppm) is 0%; in test [1] (compound alone, 5.0 ppm), 0%.

With `O=C1C2CC=CCC2C(=O)N1SC(Cl)(Cl)Cl` (centres unmarked) [(5.003) captan], the inhibition of growth at 4 ppm in the test with Botrytis cinerea (Botrytis cinerea, single active at 4 ppm, read-out: Efficacy %) came out at 20%; in the test with Parastagonospora nodorum (setting [2]), 54%. Moreover, in the test on Parastagonospora nodorum (setting [3]), the inhibition of growth at 20 ppm is 100%.

Take `N#Cc1sc2c(=O)c3ccccc3c(=O)c=2sc1C#N` [(5.010) dithianon]: the Efficacy % in the test on Botrytis cinerea (single active at 20 ppm) is listed as 100%. Also, the inhibition of growth at 0.8 ppm in test [1] (compound alone, 0.8 ppm, read-out: Efficacy %) is 11%. Further, the inhibition of growth at 20 ppm in test [1] (compound alone, 20 ppm, read-out: Efficacy %) is 98%.

Turning to `O=C1c2ccccc2C(=O)N1SC(Cl)(Cl)Cl` [(5.012) folpet], the inhibition of growth at 0.08 ppm in the test on Botrytis cinerea (Botrytis cinerea, single active at 0.08 ppm, read-out: Efficacy %) was 0%. Besides, in the test on Botrytis cinerea (Botrytis cinerea, single active at 0.4 ppm, read-out: Efficacy %), the inhibition of growth at 0.4 ppm is 2%. Further, the Efficacy % in the test with Botrytis cinerea (single active at 0.4 ppm) came to 0%. Also, the inhibition of growth at 2 ppm in the test with Parastagonospora nodorum (Parastagonospora nodorum, compound alone, 2 ppm, read-out: Efficacy %) amounted to 91%. The inhibition of growth at 10 ppm in the test on Parastagonospora nodorum (Parastagonospora nodorum, compound alone, 10 ppm, read-out: Efficacy %) was found to be 100%.

Turning to `Cc1cc(C)nc(Nc2ccccc2)n1` [(7.005) pyrimethanil], the inhibition of growth at 0.8 ppm in the test on Botrytis cinerea (Botrytis cinerea, single active at 0.8 ppm, read-out: Efficacy %) was 78%. In addition, in the test with Parastagonospora nodorum (setting [2]), the inhibition of growth at 0.8 ppm is 99% and the inhibition of growth at 4 ppm was found to be 100%. Moreover, in the test with Parastagonospora nodorum (compound alone, 20 ppm), the Efficacy % is 100%.

In the case of `Cc1ccc(C(F)(F)CNC(=O)c2c(Oc3cccc(C4CC4)c3F)nnc(Cl)c2C)c(C)c1` [Compound 1-655], the Efficacy % in the test with Cercospora beticola (0.004 ppm) was 0%; in the test with Cercospora beticola (0.020 ppm), 0%; in the test on Cercospora beticola (0.1 ppm) it was 0%; in the test with Cercospora beticola (0.5 ppm), 7%.

As for `CC1CC(C)(C)c2c(F)ccc(NC(=O)c3cn(C)nc3C(F)F)c21` (centres unmarked) [Compound 2.028, inpyrfluxam], the Efficacy was 0% and 7% in the test with Diaporthe citri (applied alone, 0.008 ppm); 23% in the test on Diaporthe citri (applied alone, 0.04 ppm); 47% and 32% in the test on Diaporthe citri (applied alone, 0.2 ppm); 92% and 94% in the test with Diaporthe citri (applied alone, 1.0 ppm); 0% in the test on Alternaria alternate (0.008 ppm); 57% with Alternaria alternate (0.04 ppm). In addition, the Efficacy worked out at 73% in the test with Alternaria alternate (0.2 ppm) and 79% with Alternaria alternate (1.0 ppm).

Regarding `Cn1cc(C(=O)Nc2ccc(F)cc2-c2ccc(Cl)c(Cl)c2)c(C(F)F)n1` [bixafen], the figures for the Efficacy in the test with Parastagonospora nodorum (0.2 ppm) and in the test with Parastagonospora nodorum (1.0 ppm) were 34% and 41%, respectively. The figures for the Efficacy % in the test on Alternaria alternate (0.04 ppm), with Alternaria alternate (0.2 ppm) and in the test with Alternaria alternate (1.0 ppm) were 79%, 81% and 86%, respectively.

For `CCO[PH](=O)[O-].CCO[PH](=O)[O-].CCO[PH](=O)[O-].[Al+3]` [fosetylaluminium], the Efficacy with Diaporthe citri (applied alone, 0.8 ppm) is 22%; in the test on Diaporthe citri (applied alone, 4 ppm), 31%; in the test on Diaporthe citri (applied alone, 20 ppm), 4%; with Diaporthe citri (applied alone, 100 ppm) it was 0%; with Cordana musae (0.8 ppm), 0%; in the test with Cordana musae (4 ppm), 12%. In addition, the Efficacy in the test with Cordana musae (20 ppm) amounted to 0%. Besides, the Efficacy % came to 8% in the test on Alternaria alternate (4 ppm), 27% with Alternaria alternate (20 ppm) and 37% in the test on Alternaria alternate (100 ppm).

On to `CCCOc1nc2ccc(I)cc2c(=O)n1CCC` [proquinazid], for which the Efficacy was determined as 11% in the test on Diaporthe citri (applied alone, 0.4 ppm); 0% in the test with Diaporthe citri (applied alone, 2 ppm); 0% in the test on Cordana musae (0.080 ppm); 0% with Cordana musae (0.4 ppm); 0% in the test with Cordana musae (2 ppm); 0% in the test on Botrytis cinerea (0.4 ppm). In addition, the Efficacy with Botrytis cinerea (2 ppm) and with Botrytis cinerea (10 ppm) was 0% in each case. Moreover, the Efficacy % in the test on Alternaria alternate (0.08 ppm), in the test with Alternaria alternate (0.4 ppm), in the test with Alternaria alternate (2 ppm) and in the test on Alternaria alternate (10 ppm) was 0% each time.

As to mancozeb [Compound 5.013], the Efficacy in the test on Diaporthe citri (0.4 ppm) was 1%; with Diaporthe citri (2 ppm), 45%; with Diaporthe citri (10 ppm), 100%; with Diaporthe citri (applied alone, 0.080 ppm), 0% and 3%; with Diaporthe citri (applied alone, 0.4 ppm) it was 0%; in the test with Diaporthe citri (applied alone, 2 ppm) it was 52% and 53%. The Efficacy with Diaporthe citri (applied alone, 10 ppm) is on record as 100%; in the test on Alternaria alternate (2 ppm), 6%; in the test with Alternaria alternate (10 ppm), 95%. Further, the Efficacy % was 0% in the test on Cercospora beticola (0.4 ppm); 100% in the test on Cercospora beticola (2 ppm); 100% in the test with Cercospora beticola (10 ppm); 1% in test [1] (single compound, 0.08 ppm); 5% in test [1] (single compound, 2 ppm); 100% in test [1] (single compound, 10 ppm).

Regarding propineb, the Efficacy in the test with Diaporthe citri (4 ppm) is 23%; with Diaporthe citri (20 ppm), 100%; in the test with Diaporthe citri (100 ppm), 97%; in the test on Diaporthe citri (applied alone, 0.8 ppm) it was 0%; with Diaporthe citri (applied alone, 20 ppm), 98% and 100%; in the test on Diaporthe citri (applied alone, 100 ppm), 100%. Further, the Efficacy in the test on Cordana musae (0.8 ppm) was 0%; in the test on Alternaria alternate (4 ppm), 56%; in the test with Alternaria alternate (20 ppm) it was 73%; with Alternaria alternate (100 ppm) it was 96%. The Efficacy % in test [1] (single compound, 0.8 ppm) was 4% and 6%; in test [1] (single compound, 20 ppm), 100%; in test [1] (single compound, 100.00 ppm), 79%; in the test on Alternaria alternate (0.8 ppm), 18% and 11%; with Alternaria alternate (4 ppm) it was 32% and 21%; in the test with Alternaria alternate (20 ppm), 66% and 71%. The Efficacy % in the test with Alternaria alternate (100 ppm) was 92%.
